Measurements published in US20180353512A1, “COMBINATION THERAPIES FOR TREATING B-CELL MALIGNANCIES” (GILEAD SCIENCES, INC., priority 2015, published 2018).

Columns and labels:
Type in all cases: cell-based
Granta-519 cells = test: ATPLite anti-proliferation assay (GI) and synergy score, 120 h
Experimental: (§1) The endpoint readout of the anti-proliferation assay was based upon quantitation of ATP as an indicator of viable cells. Cells were thawed from a liquid nitrogen preserved state. Once cells had been expanded and divided at their expected doubling times, screening began. Cells were seeded in growth media in black 384-well tissue culture treated plates at 500 cells per well (except where noted in Analyzer). Cells were equilibrated in assay plates via centrifugation and placed in incubators attached to the Dosing Modules at 37° C. for twenty-four hours before treatment. […] These Tzero (T0) plates were read using ultra-sensitive luminescence on Envision Plate Readers. Treated assay plates were incubated with the compound for one hundred twenty hours. After one hundred twenty hours, plates were developed for endpoint analysis using ATPLite. All data points were collected via automated processes; quality controlled; and analyzed using Horizon CombinatoRx proprietary software. Assay plates were accepted if they pass the following quality control standards: relative luciferase values were consistent throughout the entire experiment, Z-factor scores were greater than 0.6, untreated/vehicle controls behaved consistently on the plate.
(§2) Horizon Discovery utilized Growth Inhibition (GI) as a measure of cell viability. The cell viability of vehicle was measured at the time of dosing (T0) and after one hundred twenty hours (T120). A GI reading of 0% represented no growth inhibition—cells treated with compound and T120 vehicle signals were matched. […] A GI 200% represents complete death of all cells in the culture well. Compounds reaching an activity plateau of GI 200% were considered cytotoxic. Horizon CombinatoRx calculates GI by applying the following test and equation: […]
(§3) To measure combination effects in excess of Loewe additivity, Horizon Discovery has devised a scalar measure to characterize the strength of synergistic interaction termed the Synergy Score. The Synergy Score was calculated as:
(§4) Synergy Score=log fx log fyΣmax(0,Idata)(Idata−ILoewe)
(§5) The fractional inhibition for each component agent and combination point in the matrix was calculated relative to the median of all vehicle-treated control wells. The Synergy Score equation integrated the experimentally-observed activity volume at each point in the matrix in excess of a model surface numerically derived from the activity of the component agents using the Loewe model for additivity. Additional terms in the Synergy Score equation (above) were used to normalize for various dilution factors used for individual agents and to allow for comparison of synergy scores across an entire experiment. The inclusion of positive inhibition gating or an Idata multiplier removed noise near the zero effect level, and biased results for synergistic interactions at that occur at high activity levels.
(§6) The cell viability of vehicle was measured at the time of dosing (T0) and after 120 h (T120). […] To measure combination effects, excess of Loewe additivity was used to characterize the strength of synergistic interaction, termed the synergy score. The assay and synergy score analysis were performed in accordance with the protocol set forth in Example 1B above.

JMP-1 cells = test: as above
Experimental: as §1, §2, §3, §4, §5, §6

JVM-2 cells = test: as above
Experimental: as §1, §2, §3, §4, §5, §6

Jeko-1 cells = test: as above
Experimental: as §1, §2, §3, §4, §5, §6

Maver-1 cells = test: as above
Experimental: as §1, §2, §3, §4, §5, §6

PF-1 cells = test: as above
Experimental: as §1, §2, §3, §4, §5, §6

PF-2 cells = test: as above
Experimental: as §1, §2, §3, §4, §5, §6

Z-138 cells = test: as above
Experimental: as §1, §2, §3, §4, §5, §6

Pfeiffer cells = test: as above
Experimental: as §1, §2, §3, §4, §5, §6
(§7) The assay and synergy score analysis were performed in accordance with the protocol set forth in Example 3A above.

SU-DHL-8 cells = test: as above
Experimental: as §1, §2, §3, §4, §5, §6, §7

pAKT (Ser 473) = test: TMD-8 Western Blots; conditions: for pAKT (Ser 473), Western Blot: TMD-8
Experimental: (§8) Western Blot samples were prepared by lysing 10^6 cells for 30 minutes in 150 μL ice-cold lysis buffer. Protease Inhibitor Cocktail (Roche Diagnostics Corp), and phosphatase inhibitor sets 1 and 2 (EMD Millipore) were also added to the lysis buffer (Cell Signaling Technology). Cells were centrifuged at 12.5 g for 10 minutes at 4° C.; supernatant was collected and transferred to new tube. Sample buffer was added to each lysate, and then boiled at 99° C. for 5 minutes. Protein was loaded into an SDS-PAGE gel and run for 2 h at 125V. After electrophoresis, gel was transferred to Immobilon-F membrane using the X Cell Blot. The membrane was then blocked for 1 h at room temperature in blocking buffer and incubated overnight with primary antibodies diluted in a blocking buffer. The following day, the membranes were washed 3× (5 min each) with TBST; secondary antibodies were added and membrane was incubated for 45 minutes at room temperature, followed by 3×TBST (5 min each). Blots were read using Licor Imager. Primary antibodies included p-AKT (S473), p-BTK (Y223), BTK, p-ERK (T202/Y204), ERK, and actin (Cell Signaling Technologies), and secondary antibodies included IRDye-conjugated anti-mouse and anti-rabbit antibodies; LI-COR. Band intensity was measured using LI-COR imager and LI-COR Odyssey software.

pBTK (Y223) = test: TMD-8 Western Blots; conditions: for pBTK (Y223), Western Blot: TMD-8
Experimental: as §8

pErk1/2 (T202/Y204) = test: TMD-8 Western Blots; conditions: for pErk1/2 (T202/Y204), Western Blot: TMD-8
Experimental: as §8

pIκBa S32 = test: Peggy Sue analysis of TMD-8 Ibrutinib resistant lines; conditions: idelalisib 420 nM, Compound B 320 nM
Experimental: Lysates were also analyzed by Simple Western using Peggy Sue (ProteinSimple). A standard curve using recombinant proteins was generated to measure PI3K isoform levels on Peggy Sue; data was processed using Compass software (ProteinSimple).
Total protein expression levels and phosphorylation of PI3K, MAPK, BTK and NF-κB components were determined by Western Blot or Peggy Sue. Cells were treated with idelalisib (420 nM), Compound B (320 nM) or in combination. Protein expression level and phosphoproteomics were determined using Western Blot (p-ERK 1/2, p-AKT S473, total AKT) and Peggy Sue (p-BTK, p-IκBα S32, total IκBα), using procedures as described in Example 3B. Results were quantitated after determining the AUC for each group and normalized to DMSO vehicle control.

[1] = Homo sapiens, TMD8, FIG. 2E, single agent, idelalisib 420 nM, Compound B 320 nM, time not stated, read-out: inhibition to p-AKT (S473)
[2] = Homo sapiens, TMD8, FIG. 2E, single agent, idelalisib 420 nM, Compound B 320 nM, time not stated, read-out: inhibition to p-ERK (T202/Y204)
[3] = A20-Q143* line, normalized to DMSO control, DMSO 1.39
[4] = control line, normalized to DMSO vehicle control

CC#CC(=O)N1CC[C@@H](n2c(=O)n(-c3ccc(Oc4ccccc4)cc3)c3c(N)ncnc32)C1 [Compound B, 6-amino-9-[(3R)-1-(2-butynoyl)-3-pyrrolidinyl]-7-(4-phenoxyphenyl)-7,9-dihydro-8H-purin-8-one]
Max. Effect (% GI) (Granta-519 cells): 22 % GI | Max. Effect (% GI) (JMP-1 cells): 14 % GI | Max. Effect (% GI) (JVM-2 cells): 91 % GI | Max. Effect (% GI) (Jeko-1 cells): 37 % GI | Max. Effect (% GI) (Maver-1 cells): 45 % GI | Max. Effect (% GI) (PF-1 cells): 9 % GI | Max. Effect (% GI) (PF-2 cells): 25 % GI | Max. Effect (% GI) (Z-138 cells): 11 % GI | Max. Effect (% GI) (Pfeiffer cells): 8 % GI | Max. Effect (% GI) (SU-DHL-8 cells): 1 % GI | inhibition at 0.32 µM (pAKT (Ser 473); [1]): 46% | pAKT (Ser 473), Western Blot (pAKT (Ser 473); 2 hr, DMSO 0.45): 0.24 normalized integrated intensity | pAKT (Ser 473), Western Blot (pAKT (Ser 473); 24 hr, DMSO 0.54): 0.35 normalized integrated intensity | inhibition at 0.32 µM (pBTK (Y223); Homo sapiens, TMD8, FIG. 2E, single agent, Compound B 320 nM, time not stated, read-out: inhibition of p-BTK (Y223)): 59% | pBTK (Y223), Western Blot (pBTK (Y223); 2 hr, DMSO 0.36): 0.16 normalized integrated intensity | pBTK (Y223), Western Blot (pBTK (Y223); 24 hr, DMSO 0.33): 0.14 normalized integrated intensity | inhibition at 0.32 µM (pErk1/2 (T202/Y204); [2]): 48% | pErk1/2 (T202/Y204), Western Blot (pErk1/2 (T202/Y204); 2 hr, DMSO 1.09): 0.47 normalized integrated intensity | pErk1/2 (T202/Y204), Western Blot (pErk1/2 (T202/Y204); 24 hr, DMSO 1.49): 0.93 normalized integrated intensity | pIκBa S32 (pIκBa S32; [3]): 1.12 | pIκBa S32 (pIκBa S32; [4]): 0.62

CCC(Nc1ncnc2[nH]cnc12)c1nc2cccc(F)c2c(=O)n1-c1ccccc1 (centres unmarked) [Idelalisib, 2-(1-((9H-Purin-6-yl)amino)propyl)-5-fluoro-3-phenylquinazolin-4(3H)-one]
Max. Effect (% GI) (Granta-519 cells): 72 % GI | Max. Effect (% GI) (JMP-1 cells): 69 % GI | Max. Effect (% GI) (JVM-2 cells): 146 % GI | Max. Effect (% GI) (Jeko-1 cells): 73 % GI | Max. Effect (% GI) (Maver-1 cells): 48 % GI | Max. Effect (% GI) (PF-1 cells): 29 % GI | Max. Effect (% GI) (PF-2 cells): 113 % GI | Max. Effect (% GI) (Z-138 cells): 11 % GI | Max. Effect (% GI) (Pfeiffer cells): 33 % GI | Max. Effect (% GI) (SU-DHL-8 cells): 43 % GI | inhibition at 0.42 µM (pAKT (Ser 473); [1]): 58% | pAKT (Ser 473), Western Blot (pAKT (Ser 473); 2 hr, DMSO 0.45): 0.19 normalized integrated intensity | pAKT (Ser 473), Western Blot (pAKT (Ser 473); 24 hr, DMSO 0.54): 0.12 normalized integrated intensity | pBTK (Y223), Western Blot (pBTK (Y223); 2 hr, DMSO 0.36): 0.39 normalized integrated intensity | pBTK (Y223), Western Blot (pBTK (Y223); 24 hr, DMSO 0.33): 0.27 normalized integrated intensity | inhibition at 0.42 µM (pErk1/2 (T202/Y204); [2]): 71% | pErk1/2 (T202/Y204), Western Blot (pErk1/2 (T202/Y204); 2 hr, DMSO 1.09): 0.40 normalized integrated intensity | pErk1/2 (T202/Y204), Western Blot (pErk1/2 (T202/Y204); 24 hr, DMSO 1.49): 0.55 normalized integrated intensity | pIκBa S32 (pIκBa S32; [3]): 0.92 | pIκBa S32 (pIκBa S32; [4]): 1.09
